Results published in PubChem BioAssay (NCI).
Several values for one entry are separate records, joined by “and”; a condition that tells them apart may be missing. Equal entries are not always repeated.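 The compound was tested at five concentrations on cells cultured in 96-well plates, with a 48-hour exposure period. GI50 marks 50% less growth. The concentration for full growth arrest is given as TGI.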

Experiments:
Assay in all cases: DTP human tumour cell line panel, 48 h
[1] = system: HCC-2998 colon
[2] = system: HOP-62 NSCLC
[3] = system: HOP-92 NSCLC
[4] = system: HT29 colon
[5] = system: OVCAR-8 ovarian
[6] = system: PC-3 prostate
[7] = system: RXF 393 renal
[8] = system: SW-620 colon
[9] = system: UACC-62 melanoma
[10] = system: RPMI-8226 leukemia

Row | SMILES | GI50 [1] | TGI [1] | GI50 [2] | TGI [2] | GI50 [3] | TGI [3] | GI50 [4] | TGI [4] | GI50 [5] | TGI [5] | GI50 [6] | TGI [6] | GI50 [7] | TGI [7] | GI50 [8] | TGI [8] | GI50 [9] | TGI [9] | GI50 [10] | TGI [10]
1 | COc1cc2c3c(n(CCCN4CCSCC4)c(=O)c2cc1OC)-c1cc2c(cc1C3=O)OCO2 | 35.1 µM | > 100 µM | 26.2 µM | 73.7 µM | 19.4 µM | 46.3 µM | > 100 µM | > 100 µM | > 100 µM | > 100 µM | 42.8 µM | > 100 µM | 27.3 µM | 67.8 µM | 96.8 µM | > 100 µM | 37.5 µM | > 100 µM | – | –
2 | N=C(N)c1ccc(OCCCCCOc2ccc(C(=N)N)cc2)cc1 | 7.15 µM | 40.4 µM and 28.3 µM | 3.38 µM | 10.6 µM and 32.8 µM and 30.3 µM | 1.89 µM | 21.5 µM and > 100 µM | 5.05 µM and 15.8 µM and 35.5 µM | > 50 µM and 60.4 µM and > 100 µM | 2.05 µM | 12.9 µM and 22.5 µM and 86.6 µM | 6.92 µM | > 100 µM | 6.75 µM | 17.5 µM and 38.6 µM | 5.17 µM and 8.95 µM and 18.1 µM | > 50 µM and 57.7 µM and 86.9 µM | 2.02 µM | 9.38 µM and 23.6 µM and 29.6 µM | 3.81 µM and 22.6 µM and 6.87 µM | > 100 µM
3 | COc1ccc(C(=O)/C=C/c2ccc(OCc3ccccc3)c(OC)c2)cc1OC | 3.22 µM | 28 µM | 3.67 µM | > 100 µM | 1.4 µM | 5.81 µM | 3.19 µM | 89.7 µM | 3.1 µM | > 100 µM | 5.11 µM | > 100 µM | 2.32 µM | 5.9 µM | 3.05 µM | > 100 µM | 4.01 µM | > 100 µM | 1.88 µM | 7.16 µM
4 | CC(C)C/C(=N\NC(=O)c1ccncc1)c1cc(Cl)ccc1O | 0.27 µM | – | 0.465 µM | 64.8 µM | 0.306 µM | 28.6 µM | 0.441 µM | > 100 µM | 0.255 µM | > 49.2 µM | 1.01 µM | 73.5 µM | 2.37 µM | > 41 µM | 0.677 µM | > 100 µM | 0.451 µM | 8.08 µM | 0.461 µM | > 50.7 µM
5 | O=S(=O)(NCCCNc1nccc(-c2c(-c3cccc(F)c3)nc3occn23)n1)c1cccc2ccccc12 | 2.52 µM | 5.74 µM | 97.1 µM | > 100 µM | > 100 µM | > 100 µM | – | – | 7.02 µM | > 100 µM | 3.38 µM | > 100 µM | – | – | 6.91 µM | > 100 µM | 4.28 µM | > 100 µM | 4.86 µM | > 100 µM
6 | CC(C)c1cc(C(C)C)c(Cl)c(Cl)c1O (tested in a mixture with another compound) | – | 64.5 µM | – | > 100 µM | – | 27.9 µM | – | 58.8 µM | – | 76.1 µM | – | 40.7 µM | – | 32.5 µM | – | 82.1 µM | – | 44 µM | – | > 100 µM
